From patent US5440041A, “Acetal or ketal substituted xanthine compounds” (Cell Therapeutics, Inc., priority 1994, dated 1995)

Experiments:
[1] = tested on: tumor necrosis factor (TNF); conditions: PTX recipients; cited from earlier work
[2] = tested on: polymorphonuclear leukocytes; conditions: in response to a stimulator of chemotaxis; U.S. Pat. No. 4,636,507; cited from earlier work
PAPH = assay: Inhibition of PAPH; assay type: biochemical; conditions: specific activation pathway not involving PI; substrates with 1,2-diunsaturated and 1-alkyl,2-unsaturated subspecies
Description: One in vitro assay measures inhibition of the relevant enzymes lysophosphatidic acid acyltransferase (LPAAT) and phosphatidic acid phosphoryl hydrolase (PAPH). The assay involves incubating of target cells with a primary stimulus (e.g., a variety of cytokines, growth factors, oncogene products, putative therapeutic agents, irradiation, viral infection, toxins, bacterial infection and the products thereof, and any stimulus which, if not counteracted, has a deleterious effect on the target cell) in the presence or absence of an inventive compound at varying dosage levels. […] It is important to note that the assay method permits discrimination between various forms of PA and DAG so that those relevant to the pathway affected by the (R) or (S) compounds of the invention can be measured directly. […] Thus, the relevant unsaturated (non-arachidonic) PA and DAG subspecies may be detected. […]

certain cytokines = conditions: U.S. Pat. No. 4,965,271 and U.S. Pat. No. 5,096,906; cited from earlier work

Q: What does the source list for `CC(=O)CCCCn1c(=O)c2c(ncn2C)n(C)c1=O` [PTX, 1-(5-oxohexyl)-3,7-dimethylxanthine]?
A: TNF levels in normal volunteers [1]: higher among PTX recipients; effect on chemotaxis in polymorphonuclear leukocytes [2]: stimulate chemotaxis; effect on PAPH (PAPH): blocks PAPH in a specific activation pathway; effect on activity of certain cytokines to affect chemotaxis (certain cytokines): inhibit activity of certain cytokines to affect chemotaxis
